Assay results from patent publication US4992450A, “Piperidine opioid antagonists” (Eli Lilly and Company, priority 1989, dated 1991).
Structures can show the parent of a compound that is named as a salt. Where two headings read alike, the source gives them in different places.

What was measured:
mu receptor [1] = molecular target: T1, mu receptor (Rattus norvegicus, UniProt P33535); test: Opioid receptor binding displacement assay, mu site (rat whole brain minus cerebellum, 3H ligand); design: species or system Male Sprague Dawley rats
T1 construct: rat whole brain minus cerebellum for mu and delta sites; from tissue; host or cells: rat whole brain minus cerebellum, frozen pellet fraction
Method: (§1) This assay was conducted by the following procedure.
(§2) Male Sprague Dawley rats for mu and delta site experiments and male Hartley guinea pigs for kappa site experiments were sacrificed via decapitation and the brains were removed. The brain tissue, rat whole brain minus cerebellum for mu and delta sites and guinea pig cortex for the kappa site, was homogenized in a Teflon and glass tissue homogenizer. A supernatant I, pellet IV, fraction was frozen in a nitrogen freezer at 1.33 g/ml concentration and stored for not longer than five weeks prior to use. Pellets were rehydrated with physiological buffer prior to use.
(§3) The reaction was initiated by the addition of the rehydrated tissue which has been preincubated at 37° C. for 20 minutes. The reaction mixture was incubated in a 37° C. water bath for 20 minutes. The reaction was terminated by rapid filtration, (Amicon vacuum manifolds), through Whatman GF/C glass filters that had been presoaked in Krebs-Hepes buffer pH 7.4. The filters were then washed 2× with 5 ml of ice cold Krebs-Hepes buffer pH 7.4. Washed filters were placed in scintillation vials and 10 ml PCS, (Amersham), was added and samples counted in a Searle D-300 beta counter. Means and standard error statistics were calculated for triplicate experimental determinations in certain cases. The procedure was slightly modified for the kappa site. The tissue was pretreated with 100 nM concentrations of mu and delta receptor site blockers. The incubation time for the reaction mixture was 45 minutes at 37° C.

[2] = test system: meal fed obese Zucker rats; test: Food consumption assay in meal fed obese Zucker rats; assay type: in vivo; settings: Rattus norvegicus, sc, 4 h, amount to decrease food consumption 20% during first four hours
Description: The following assay was employed to evaluate the ability of the compounds of the invention to effect food and water consumption of meal fed obese Zucker rats.
According to this procedure, 3-4 month old obese Zucker rats were trained to eat food daily from 8:00 A.M. to 4:00 P.M. only, such that the body weight gain approximates that if the rats were fed ad libitum. These rats were allowed to consume water at all times. Four groups of rats with four rats in each group, two female and two male, were formed. One group served as control for the other three groups each day. Each of the other groups were given a subcutaneous dose of the compound to be evaluated. The test compound was formulated in physiological saline containing 10% dimethylsulfoxide by volume.
Animals remained drug free for 4 days before the next test. Food and water consumption of each rat were measured for the first four hours. A test on one compound was run for three consecutive days. The drug effect was expressed as the percent of the control for that test day.
In the Table, column 1 gives the Example Number of the compound evaluated; and column 2 provides the ED20 in mg/kg, wherein ED20 represents the amount of compound evaluated in mg/kg necessary to decrease food consumption 20% during the first four hours of the experiment.

mu receptor [3] = molecular target: T2, mu receptor (Mus musculus, UniProt P42866); test: Mouse writhing assay, antagonism of morphine analgesia (mu); assay type: in vivo, CF-1 male mice; settings: sc, read-out: Mu AD50
T2 construct: Five CF-1 male mice (Charles River, Portage, Mich.); from tissue; host or cells: whole living CF-1 male mice (in vivo)

kappa receptor [4] = molecular target: T3, kappa receptor (Cavia porcellus, UniProt P41144); test: Opioid receptor binding displacement assay, kappa site (guinea pig cortex, 3H ligand); design: species or system male Hartley guinea pigs
T3 construct: guinea pig cortex for the kappa site; from tissue; host or cells: guinea pig cortex, frozen pellet fraction
Method: as §1, §2, §3

kappa receptor [5] = molecular target: T4, kappa receptor (Mus musculus, UniProt P33534); test: in vivo; design: species or system CF-1 male mice; settings: sc, read-out: Kappa AD50
T4 construct: Five CF-1 male mice (Charles River, Portage, Mich.); from tissue; host or cells: whole living CF-1 male mice (in vivo)

kappa receptors = molecular target: T5, kappa receptors (Rattus norvegicus, UniProt P34975); test: Rat diuresis assay, antagonism of bremazocine-induced urination; assay type: in vivo, male Long-Evans hooded rats; settings: sc, rats, s.c., urinary output reduced to 50% of effect of 0.08 mg/kg bremazocine alone
T5 construct: sixty male Long-Evans hooded rats; from tissue; host or cells: whole living male Long-Evans hooded rats (in vivo)
Method: As such, the compounds of the invention were also evaluated in a rat diuresis assay conducted according to the following procedure described by Leander et al. in Drug Development Research 4:421-427 (1984) in an effort to further establish the ability of the present compounds to block kappa receptors.
According to this procedure, sixty male Long-Evans hooded rats (Charles River Breeding Laboratories, Portage, Mich.) weighing between about 300 and 500 grams each were housed either individually or in pairs in a temperature-controlled (23° C.) colony room which was illuminated between 6:00 A.M. and 6:00 P.M. Rodent chow and tap water were continuously available except during the measurement of urine output. The animals were used repeatedly, but no more frequently than twice a week.
The animals were then injected with various doses of the test compounds. To measure urine output, the animals were removed from the home cages, weighed, injected and placed in metabolism cages for 5 hr. Excreted urine was funneled into graduated cylinders. Cumulative urine volumes were determined at designated time intervals, usually at 2 and 5 hr after injection.
The compounds which are salt forms were dissolved in distilled water. If necessary, the compounds were dissolved in distilled water with the aid of either a few drops of lactic acid or hydrochloric acid and gentle warming. All injections were s.c. in a volume of 1 ml/kg of body weight. During tests for antagonism, two injections were given, one on each side of the body.
In the Table, column 1 provides the Example Number of the compound tested; column 2, the amount of compound in mg/kg necessary to reduce the urinary output to 50% of the effect produced by 0.08 mg/kg of bremazocine alone two hours after injection of bremazocine and the test compound; and column 3, the amount of compound in mg/kg necessary to reduce the urinary output to 50% of the effect produced by 0.08 mg/kg of bremazocine alone five hours after injection of bremazocine and the test compound.

[6] = rat brain minus cerebellum, pH 7.4, 37° C., 20 minutes, read-out: Ki Mu
[7] = guinea pig cortex, pH 7.4, 37° C., 45 minutes, mu and delta sites blocked (100 nM), read-out: Ki Kappa
[8] = 2 h, two hours after injection, read-out: AD50 Two Hours
[9] = 5 h, five hours after injection, read-out: AD50 Five Hours

T5 sequence (P34975 whole entry): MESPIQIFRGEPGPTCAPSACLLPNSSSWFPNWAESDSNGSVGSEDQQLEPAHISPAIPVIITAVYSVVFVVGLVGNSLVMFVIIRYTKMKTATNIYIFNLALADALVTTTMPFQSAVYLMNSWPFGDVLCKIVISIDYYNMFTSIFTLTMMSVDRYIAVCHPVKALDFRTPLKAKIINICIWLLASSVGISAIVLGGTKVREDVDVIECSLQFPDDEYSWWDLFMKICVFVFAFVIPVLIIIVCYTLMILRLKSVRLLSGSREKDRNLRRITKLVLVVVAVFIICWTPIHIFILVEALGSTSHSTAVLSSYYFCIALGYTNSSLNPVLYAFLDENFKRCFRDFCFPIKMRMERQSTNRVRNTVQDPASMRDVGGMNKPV
T2 sequence (P42866 whole entry): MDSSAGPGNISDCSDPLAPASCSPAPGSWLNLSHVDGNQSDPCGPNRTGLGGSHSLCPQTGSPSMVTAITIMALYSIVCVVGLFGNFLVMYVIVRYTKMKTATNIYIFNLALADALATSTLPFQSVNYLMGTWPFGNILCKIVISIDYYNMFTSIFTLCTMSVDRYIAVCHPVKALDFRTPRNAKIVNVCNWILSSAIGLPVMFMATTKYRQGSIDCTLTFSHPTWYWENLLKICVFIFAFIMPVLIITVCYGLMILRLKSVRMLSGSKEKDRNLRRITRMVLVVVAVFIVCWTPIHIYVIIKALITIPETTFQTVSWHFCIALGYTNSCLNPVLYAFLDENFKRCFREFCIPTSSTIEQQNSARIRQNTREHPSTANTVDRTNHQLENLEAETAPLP
T4 sequence (P33534 whole entry): as the sequence (P34975 whole entry) above, with E11D, A17S, P51S, V308A counted along it
T3 sequence (P41144 whole entry): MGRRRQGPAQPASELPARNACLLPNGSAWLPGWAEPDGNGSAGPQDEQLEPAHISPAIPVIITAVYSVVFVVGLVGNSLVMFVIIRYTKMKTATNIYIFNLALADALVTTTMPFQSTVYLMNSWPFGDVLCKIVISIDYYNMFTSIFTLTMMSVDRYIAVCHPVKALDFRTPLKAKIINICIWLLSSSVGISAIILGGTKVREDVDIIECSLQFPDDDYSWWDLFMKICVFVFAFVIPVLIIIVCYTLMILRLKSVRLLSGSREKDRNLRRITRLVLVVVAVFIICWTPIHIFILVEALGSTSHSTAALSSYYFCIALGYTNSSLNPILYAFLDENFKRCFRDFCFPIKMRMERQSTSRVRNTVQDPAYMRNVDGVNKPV
T1 sequence (P33535 whole entry): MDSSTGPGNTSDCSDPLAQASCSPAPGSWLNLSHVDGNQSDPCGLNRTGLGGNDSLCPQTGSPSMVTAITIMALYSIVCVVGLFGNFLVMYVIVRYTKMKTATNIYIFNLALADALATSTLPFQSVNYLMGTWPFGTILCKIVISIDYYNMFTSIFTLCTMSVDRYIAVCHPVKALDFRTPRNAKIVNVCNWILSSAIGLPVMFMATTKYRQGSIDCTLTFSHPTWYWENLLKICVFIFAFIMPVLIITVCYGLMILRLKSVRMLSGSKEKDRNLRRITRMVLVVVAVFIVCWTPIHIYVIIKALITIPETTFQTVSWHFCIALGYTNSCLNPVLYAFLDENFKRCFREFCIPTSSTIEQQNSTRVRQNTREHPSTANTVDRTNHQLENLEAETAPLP

SMILES	Ki (mu receptor [1]; [6])	ED20 [2]	ED50 (mu receptor [3])	Ki (kappa receptor [4]; [7])	ED50 (kappa receptor [5])	Ki (mu receptor [1])	Ki (kappa receptor [4])	ED50 (kappa receptors; [8])	ED50 (kappa receptors; [9])	Ki (kappa receptor [4]; read-out: Ki Kappa, guinea pig cortex, pH 7.4, 37° C., 45 minutes, mu and delta sites blocked (100 nM))
C[C@@H]1CN(CC[C@H](O)C2CCCCC2)CC[C@]1(C)c1cccc(O)c1 [Example 24, trans-(-)-1-[S-(3-Hydroxy-3-cyclohexylpropyl)]-3,4-dimethyl-4-(3-hydroxyphenyl)piperidine]	1.4 ± 0.61 nM	0.12 mg/kg	0.05 mg/kg	11.4 ± 4.29 nM	0.24 mg/kg	–	–	–	–	–
C=C(C)CCCN1CCC(C)(c2cccc(O)c2)C(C)C1 (stereo not drawn) [Example 3, trans-(±)-1-(4-Methyl-4-pentenyl)-3,4-dimethyl-4-(3-hydroxyphenyl)piperidine hydrochloride]	–	0.29 mg/kg	0.08 mg/kg	–	0.29 mg/kg	2.95 ± 1.12 nM	13.9 ± 6.66 nM	0.27 mg/kg	0.39 mg/kg	–
C[C@H]1CN(CCc2ccccc2)CC[C@@]1(C)c1cccc(O)c1 (relative stereo) [Compound D, 3-(3α,4β-Dimethyl-1-phenethyl-4α-piperidyl)phenol hydrochloride, reference compound]	1.2 nM	0.94 mg/kg	0.16 mg/kg	51 nM	1.38 mg/kg	–	–	–	–	–
CC(C)CCCCN1CCC(C)(c2cccc(O)c2)C(C)C1 (stereo not drawn) [Example 4, trans-(±)-1-(5-Methylhexyl)-3,4-dimethyl-4-(3-hydroxyphenyl)piperidine hydrochloride]	–	0.05 mg/kg	0.35 mg/kg	–	0.23 mg/kg	–	–	0.17 mg/kg	0.46 mg/kg	6.04 ± 0.44 nM
C[C@H]1CN(CCC(O)c2cccs2)CC[C@@]1(C)c1cccc(O)c1 (relative stereo) [Example 40, trans-(±)-1-[R,S-[3-Hydroxy-3-(2-thienyl)-propyl]-3,4-dimethyl-4-(3-hydroxyphenyl)piperidine hydrochloride]	0.5 nM	0.11 mg/kg	0.065 mg/kg	–	0.14 mg/kg	–	–	3.78 mg/kg	1.44 mg/kg	–
C=CCCCCN1CCC(C)(c2cccc(O)c2)C(C)C1 (stereo not drawn) [Example 21, trans-(±)-1-(5-n-Hexenyl)-3,4-dimethyl-4-(3-hydroxyphenyl)piperidine hydrochloride]	–	9.37 mg/kg	–	–	–	1.61 nM	–	–	–	–
C[C@H]1CN(CCC(=O)C2CCCC2)CC[C@@]1(C)c1cccc(O)c1 (relative stereo) [Example 17, trans-(±)-1-(1-Cyclopentylpropanon-3-yl)-3,4-dimethyl-4-(3-hydroxyphenyl)piperidine hydrochloride]	–	0.31 mg/kg	0.21 mg/kg	–	0.19 mg/kg	0.84 nM	0.55 nM	–	–	–
C[C@H]1CN(C)CC[C@@]1(C)c1cccc(O)c1 (relative stereo) [Compound B, 3-(1,3α,4β-Trimethyl-4α-piperidyl)phenol hydrochloride, reference compound]	80 nM	3.99 mg/kg	0.74 mg/kg	–	2.5 mg/kg	–	–	–	–	–
CC1CN(CCCc2ccsc2)CCC1(C)c1cccc(O)c1 (stereo not drawn) [Example 41, trans-(±)-1-[3-(3-Thienyl)propyl]-3,4-dimethyl-4-(3-hydroxyphenyl)piperidine hydrochloride]	–	–	0.12 mg/kg	–	0.24 mg/kg	–	10.3 nM	2.7 mg/kg	1.9 mg/kg	–
CC1CN(CCCC2CCCCC2)CCC1(C)c1cccc(O)c1 (stereo not drawn) [Example 11, trans-(±)-1-(3-Cyclohexylpropyl)-3,4-dimethyl-4-(3-hydroxyphenyl)piperidine hydrochloride]	–	0.15 mg/kg	0.19 mg/kg	–	0.35 mg/kg	–	2.34 nM	1.9 mg/kg	1.02 mg/kg	–
C[C@H]1CN(CCC(O)C2CCCCC2)CC[C@@]1(C)c1cccc(O)c1 (relative stereo) [Example 27, trans-(±)-1-[R,S-(3-Hydroxy-3-cyclohexylpropyl)]-3,4-dimethyl-4-(3-hydroxyphenyl)piperidine hydrochloride]	0.22 ± 0.03 nM	0.04 mg/kg	0.07 mg/kg	5.04 ± 0.58 nM	0.14 mg/kg	–	–	–	–	–
C[C@@H]1CN(CC[C@@H](O)C2CCCCC2)CC[C@]1(C)c1cccc(O)c1 [Example 26, trans-(-)-1-[R-(3-Hydroxy-3-cyclohexylpropyl)]-3,4-dimethyl-4-(3-hydroxyphenyl)piperidine]	–	0.35 mg/kg	0.07 mg/kg	–	0.52 mg/kg	2.24 ± 0.17 nM	–	–	–	–
CC(C)CCN1CCC(C)(c2cccc(O)c2)C(C)C1 (stereo not drawn) [Example 16, trans-(±)-1-(3-Methylbutyl)-3,4-dimethyl-4-(3-hydroxyphenyl)piperidine hydrochloride]	–	> 20 mg/kg	0.87 mg/kg	–	0.62 mg/kg	–	70.1 nM	7.7 mg/kg	4.45 mg/kg	–
C[C@H]1CN(CCC2C=CCC2)CC[C@@]1(C)c1cccc(O)c1 (relative stereo) [Example 7, trans-(±)-1-[2-(2-Cyclopenten-1-yl)ethyl]-3,4-dimethyl-4-(3-hydroxyphenyl)piperidine hydrochloride]	–	0.34 mg/kg	0.11 mg/kg	–	0.12 mg/kg	–	1.04 nM	1.3 mg/kg	1.38 mg/kg	–
CC1CN(CCC2CCCC2)CCC1(C)c1cccc(O)c1 (stereo not drawn) [Example 6, trans-(±)-1-(2-Cyclopentylethyl)-3,4-dimethyl-4-(3-hydroxyphenyl)piperidine hydrochloride]	–	0.33 mg/kg	0.13 mg/kg	–	0.22 mg/kg	0.94 nM	–	–	0.67 mg/kg	–
CC1CN(CC2CCCCC2)CCC1(C)c1cccc(O)c1 (stereo not drawn) [Example 10, trans-(±)-1-(Cyclohexylmethyl)-3,4-dimethyl-4-(3-hydroxyphenyl)piperidine hydrochloride]	–	1.25 mg/kg	0.46 mg/kg	–	0.34 mg/kg	–	28.2 nM	14.9 mg/kg	3.9 mg/kg	–
COC(CCN1CC[C@@](C)(c2cccc(O)c2)[C@@H](C)C1)C1CCCCC1 (relative stereo) [Example 31, trans-(±)-1-[R,S-(3-Methoxy-3-cyclohexylpropyl)]-3,4-dimethyl-4-(3-hydroxyphenyl)piperidine hydrochloride]	0.77 nM	–	1.42 mg/kg	3.82 nM	0.44 mg/kg	–	–	–	–	–
